Source: US20220323406A1, “METHODS AND COMPOSITIONS FOR DIFFERENTIATING STEM CELLS” (Massachusetts Institute of Technology, priority 2019, published 2022)

What was measured:
[1] = tested on: ENR+CD organoids (ISC to Paneth cell differentiation); experiment: Primary screen: basal (non-stimulated) lysozyme secretion LYZ.NS, 2.5-D 384-well ENR+CD organoid differentiation; format: cell-based, mouse; conditions: primary screen; for Z.LYZ.NS: standard z score
Description: (§1) High-throughput screening.

[2] = tested on: ENR+CD organoids (ISC to Paneth cell differentiation); experiment: Primary screen: CCh-stimulated lysozyme secretion LYZ.S, 2.5-D 384-well ENR+CD organoid differentiation; format: cell-based, mouse; conditions: primary screen
Description: as §1

ENR+CD organoids = experiment: Primary screen: ATP (CellTiter-Glo 3D, CTG) cell number/viability, 2.5-D 384-well ENR+CD organoids; conditions: primary screen; for Z.CTG: standard z score;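 as to all read-outs here: compounds given at plating and again on day 3 over a 6-day differentiation from ENR+CV stem-cell-enriched precursors, ATP measured on day 6, plate median as control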
[3] = 1st dose row of the treatment (0.08 uM by row order; dose not reprinted)
[4] = 2nd dose row of the treatment (0.40 uM by row order; dose not reprinted)
[5] = 3rd dose row of the treatment (2.00 uM by row order; dose not reprinted)
[6] = 4th dose row of the treatment (10.00 uM by row order; dose not reprinted)
[7] = dose 0.08 uM, FC relative to plate median
[8] = dose 0.40 uM, FC relative to plate median
[9] = dose 2.00 uM, FC relative to plate median
[10] = dose 10.00 uM, FC relative to plate median
[11] = dose 0.08 uM, FC vs plate median
[12] = dose 0.40 uM, FC vs plate median
[13] = dose 2.00 uM, FC vs plate median
[14] = dose 10.00 uM, FC vs plate median

Compound: CN1CCc2cc3c(cc2[C@H]1[C@@H]1OC(=O)c2c1ccc1c2OCO1)OCO3 [(+)-Bicuculline]
- SSMD.LYZ.NS_Rep (strictly standardized mean difference) [1, 3]: 0.481
- SSMD.LYZ.NS_Rep (strictly standardized mean difference) [1, 4]: 0.106
- SSMD.LYZ.NS_Rep (strictly standardized mean difference) [1, 5]: 0.276
- SSMD.LYZ.NS_Rep (strictly standardized mean difference) [1, 6]: 0.175
- Dose.FC.LYZ.NS ([1]; dose 0.08 uM): 0.092 log2 fold change
- Z.LYZ.NS (standard z score) ([1]; dose 0.08 uM): 0.805
- Dose.FC.LYZ.NS ([1]; dose 0.40 uM): 0.013 log2 fold change
- Z.LYZ.NS (standard z score) ([1]; dose 0.40 uM): 0.116
- Dose.FC.LYZ.NS ([1]; dose 2.00 uM): 0.031 log2 fold change
- Z.LYZ.NS (standard z score) ([1]; dose 2.00 uM): 0.270
- Dose.FC.LYZ.NS ([1]; dose 10.00 uM): 0.020 log2 fold change
- Z.LYZ.NS (standard z score) ([1]; dose 10.00 uM): 0.176
- SSMD.LYZ.S_Rep (strictly standardized mean difference) [2, 3]: 0.545
- Z.LYZ.S (standard z score) [2, 3]: 1.005
- SSMD.LYZ.S_Rep (strictly standardized mean difference) [2, 4]: 0.216
- Z.LYZ.S (standard z score) [2, 4]: 0.221
- SSMD.LYZ.S_Rep (strictly standardized mean difference) [2, 5]: −0.164
- Z.LYZ.S (standard z score) [2, 5]: −0.169
- SSMD.LYZ.S_Rep (strictly standardized mean difference) [2, 6]: 0.264
- Z.LYZ.S (standard z score) [2, 6]: 0.465
- Dose.FC.LYZ.S ([2]; dose 0.08 uM): 0.155 log2 fold change
- Dose.FC.LYZ.S ([2]; dose 0.40 uM): 0.034 log2 fold change
- Dose.FC.LYZ.S ([2]; dose 2.00 uM): −0.026 log2 fold change
- Dose.FC.LYZ.S ([2]; dose 10.00 uM): 0.072 log2 fold change
- SSMD.CTG.Rep (strictly standardized mean difference) (ENR+CD organoids; [3]): 0.472
- SSMD.CTG.Rep (strictly standardized mean difference) (ENR+CD organoids; [4]): −0.078
- SSMD.CTG.Rep (strictly standardized mean difference) (ENR+CD organoids; [5]): −0.237
- SSMD.CTG.Rep (strictly standardized mean difference) (ENR+CD organoids; [6]): −0.405
- Dose.FC.CTG (ENR+CD organoids; dose 0.08 uM): 0.318 log2 fold change
- Z.CTG (standard z score) (ENR+CD organoids; dose 0.08 uM): 0.760
- Dose.FC.CTG (ENR+CD organoids; dose 0.40 uM): −0.029 log2 fold change
- Z.CTG (standard z score) (ENR+CD organoids; dose 0.40 uM): −0.069
- Dose.FC.CTG (ENR+CD organoids; dose 2.00 uM): −0.166 log2 fold change
- Z.CTG (standard z score) (ENR+CD organoids; dose 2.00 uM): −0.396
- Dose.FC.CTG (ENR+CD organoids; dose 10.00 uM): −0.132 log2 fold change
- Z.CTG (standard z score) (ENR+CD organoids; dose 10.00 uM): −0.315

Compound: O=C1CC(=O)c2c(Cl)c(Cl)c(Cl)c(Cl)c21 [TCID]
- Dose.FC.LYZ.NS [1, 7]: 0.049 log2 fold change
- Z.LYZ.NS ([1]; dose 0.08 uM): 0.431
- Dose.FC.LYZ.NS [1, 8]: −0.018 log2 fold change
- Z.LYZ.NS ([1]; dose 0.40 uM): −0.155
- Dose.FC.LYZ.NS [1, 9]: 0.066 log2 fold change
- Z.LYZ.NS ([1]; dose 2.00 uM): 0.578
- Dose.FC.LYZ.NS [1, 10]: −0.018 log2 fold change
- Z.LYZ.NS ([1]; dose 10.00 uM): −0.159
- Dose.FC.LYZ.S [2, 7]: 0.062 log2 fold change
- Dose.FC.LYZ.S [2, 8]: 0.017 log2 fold change
- Dose.FC.LYZ.S [2, 9]: −0.066 log2 fold change
- Dose.FC.LYZ.S [2, 10]: −0.054 log2 fold change
- Dose.FC.CTG (ENR+CD organoids; [7]): −0.136 log2 fold change
- Z.CTG (ENR+CD organoids; dose 0.08 uM): −0.325
- Dose.FC.CTG (ENR+CD organoids; [8]): −0.007 log2 fold change
- Z.CTG (ENR+CD organoids; dose 0.40 uM): −0.017
- Dose.FC.CTG (ENR+CD organoids; [9]): −0.217 log2 fold change
- Z.CTG (ENR+CD organoids; dose 2.00 uM): −0.517
- Dose.FC.CTG (ENR+CD organoids; [10]): −0.228 log2 fold change
- Z.CTG (ENR+CD organoids; dose 10.00 uM): −0.545

Compound: O=C(NCCN1CCOCC1)c1ccc(Cl)cc1 [Moclobemide (Ro 111163)]
- Z.LYZ.NS ([1]; dose 0.08 uM): 0.654
- Z.LYZ.NS ([1]; dose 0.40 uM): 1.055
- Z.LYZ.NS ([1]; dose 2.00 uM): 0.011
- Z.LYZ.NS ([1]; dose 10.00 uM): −0.243
- Dose.FC.LYZ.NS [1, 11]: 0.075 log2 fold change
- Dose.FC.LYZ.NS [1, 12]: 0.121 log2 fold change
- Dose.FC.LYZ.NS [1, 13]: 0.001 log2 fold change
- Dose.FC.LYZ.NS [1, 14]: −0.028 log2 fold change
- Dose.FC.LYZ.S [2, 11]: 0.147 log2 fold change
- Dose.FC.LYZ.S [2, 12]: 0.094 log2 fold change
- Dose.FC.LYZ.S [2, 13]: 0.012 log2 fold change
- Dose.FC.LYZ.S [2, 14]: 0.019 log2 fold change
- Z.CTG (ENR+CD organoids; dose 0.08 uM): 0.348
- Z.CTG (ENR+CD organoids; dose 0.40 uM): 0.252
- Z.CTG (ENR+CD organoids; dose 2.00 uM): 0.276
- Z.CTG (ENR+CD organoids; dose 10.00 uM): 0.100
- Dose.FC.CTG (ENR+CD organoids; [11]): 0.146 log2 fold change
- Dose.FC.CTG (ENR+CD organoids; [12]): 0.106 log2 fold change
- Dose.FC.CTG (ENR+CD organoids; [13]): 0.116 log2 fold change
- Dose.FC.CTG (ENR+CD organoids; [14]): 0.042 log2 fold change

Compound: CCOC(=O)c1ccc(N2NC(=O)/C(=C/c3ccc([N+](=O)[O-])o3)C2=O)cc1 [PYR-41]
- Dose.FC.LYZ.NS [1, 7]: 0.150 log2 fold change
- Z.LYZ.NS ([1]; dose 0.08 uM): 1.305
- Dose.FC.LYZ.NS [1, 8]: 0.089 log2 fold change
- Z.LYZ.NS ([1]; dose 0.40 uM): 0.777
- Dose.FC.LYZ.NS [1, 9]: 0.065 log2 fold change
- Z.LYZ.NS ([1]; dose 2.00 uM): 0.568
- Dose.FC.LYZ.NS [1, 10]: 0.099 log2 fold change
- Z.LYZ.NS ([1]; dose 10.00 uM): 0.861
- Dose.FC.LYZ.S [2, 7]: 0.193 log2 fold change
- Dose.FC.LYZ.S [2, 8]: 0.076 log2 fold change
- Dose.FC.LYZ.S [2, 9]: 0.049 log2 fold change
- Dose.FC.LYZ.S [2, 10]: 0.129 log2 fold change
- Dose.FC.CTG (ENR+CD organoids; [7]): 0.255 log2 fold change
- Z.CTG (ENR+CD organoids; dose 0.08 uM): 0.609
- Dose.FC.CTG (ENR+CD organoids; [8]): 0.319 log2 fold change
- Z.CTG (ENR+CD organoids; dose 0.40 uM): 0.762
- Dose.FC.CTG (ENR+CD organoids; [9]): 0.161 log2 fold change
- Z.CTG (ENR+CD organoids; dose 2.00 uM): 0.385
- Dose.FC.CTG (ENR+CD organoids; [10]): 0.096 log2 fold change
- Z.CTG (ENR+CD organoids; dose 10.00 uM): 0.229
